This note sets out measurements from patent publication US20060270634A1, “Acetal phosphate-derived LPA mimics, PPARgamma activators, and autotaxin inhibitors” (priority 2005, published 2006).

The target of assay [1] is LPA1 (Homo sapiens, UniProt Q92633). Put plainly: Ca2+ transients in RH7777 cells expressing LPA1 (agonist / inhibition of LPA response). As to conditions: for LPA1 effect in words: Tables 2, 4, 6.
Description: (§1) The biological effects of all synthesized compounds were testing using three high-throughput assays. First, intracellular calcium transients in rat hepatoma (RH777, an LPA receptor null cell) cell lines individually expressing either LPA1, LPA2, and LPA3 receptors were analyzed to evaluate compounds as agonists or antagonists.
(§2) Synthesized compounds were tested for induction and inhibition of LPA-induced calcium transients in rat hepatoma (RH7777) cell lines that stably express individual LPA1, LPA2, and LPA3 receptors as described in the literature using a FlexStation II automated fluorimeter (Molecular Devices, Sunnyvale, Calif.).
(§3) RH7777 cells, which lack LPA GPCR, were stably transfected with individual LPA1, LPA2 and LPA3 receptors and used for the in vitro screening.
In assay [2] the target is LPA2 (Homo sapiens, UniProt Q9HBW0). Put plainly: Ca2+ transients in RH7777 cells expressing LPA2 (agonist / inhibition of LPA response). As to conditions: for Emax: RH7777, read-out: LPA2 (Emax).
Description: as §1, §2, §3
Assay [3] deals with T1, LPA3 (Homo sapiens, UniProt Q9UBY5).
T1 sequence (Q9UBY5 1-353): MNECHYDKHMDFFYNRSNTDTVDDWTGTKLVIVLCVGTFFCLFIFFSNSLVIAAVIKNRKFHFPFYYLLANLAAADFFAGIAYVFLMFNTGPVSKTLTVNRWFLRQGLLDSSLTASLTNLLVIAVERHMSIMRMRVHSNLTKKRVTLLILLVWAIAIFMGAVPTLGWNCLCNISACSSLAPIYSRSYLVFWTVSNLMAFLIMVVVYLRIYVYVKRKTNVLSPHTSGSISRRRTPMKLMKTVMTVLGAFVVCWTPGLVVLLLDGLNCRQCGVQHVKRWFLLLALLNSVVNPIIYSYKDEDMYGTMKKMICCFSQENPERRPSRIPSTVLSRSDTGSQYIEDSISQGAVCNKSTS
Put plainly: Ca2+ transients in RH7777 cells expressing LPA3 (agonist / inhibition of LPA response). As to conditions: for LPA3 effect in words: Tables 2, 4, 6.
Description: as §1, §2, §3

[4] abbreviates: read-out: LPA3 IC50, 200 nM LPA.
The mark [5] stands for this setting: read-out: LPA1 IC50, 200 nM LPA.

Each structure is given as a SMILES string. Like-named read-outs stand apart in the source and are kept apart here. A value given as a limit tells only on which side of the number the result lay.

In general, EC50 refers to the midpoint of the concentration-response curve. Usually IC50 stands for the concentration that gives 50% inhibition. As a reminder, the Ki is a measure of affinity in units of concentration, obtained from inhibition or displacement. A word on the Emax: it is the greatest response seen or fitted, relative to the assay's reference.

LPA1, sequence (Q92633 whole entry, species assumed): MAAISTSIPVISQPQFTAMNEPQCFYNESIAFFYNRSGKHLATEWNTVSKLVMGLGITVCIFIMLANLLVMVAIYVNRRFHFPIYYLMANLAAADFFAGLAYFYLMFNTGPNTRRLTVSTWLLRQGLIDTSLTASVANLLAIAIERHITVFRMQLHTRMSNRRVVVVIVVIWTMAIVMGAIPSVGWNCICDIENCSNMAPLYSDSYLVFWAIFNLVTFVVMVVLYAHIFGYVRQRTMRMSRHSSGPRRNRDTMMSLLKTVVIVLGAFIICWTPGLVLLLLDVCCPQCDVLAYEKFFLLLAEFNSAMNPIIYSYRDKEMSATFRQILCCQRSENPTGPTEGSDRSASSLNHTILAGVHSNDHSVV
LPA2, sequence (Q9HBW0 whole entry, species assumed): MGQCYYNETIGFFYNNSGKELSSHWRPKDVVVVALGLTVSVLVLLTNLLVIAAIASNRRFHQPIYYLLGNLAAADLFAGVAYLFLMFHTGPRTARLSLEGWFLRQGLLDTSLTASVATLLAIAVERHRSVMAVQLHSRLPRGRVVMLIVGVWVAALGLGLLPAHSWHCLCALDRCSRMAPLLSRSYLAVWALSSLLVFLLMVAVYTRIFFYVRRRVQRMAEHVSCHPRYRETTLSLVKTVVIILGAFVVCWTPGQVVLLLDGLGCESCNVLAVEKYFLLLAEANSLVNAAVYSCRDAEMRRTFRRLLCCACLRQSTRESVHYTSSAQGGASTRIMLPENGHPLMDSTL

Turning to `CCCCCCCCCCCCCCC(F)(F)P(=O)(O)O`, the “LPA1 effect in words” value in assay [1] is listed as “Weak inhibition”. For the same molecule, in assay [2] (LPA2 EC50, Table 4), the EC50 is around 10000 nM. Further, the “LPA2 effect in words” value in assay [2] (Table 4) was “Weak agonist”. Besides, the half-inhibitory concentration (IC50) in assay [3] (setting [4]) was 1510 nM.

Regarding `CCCCCCCCc1ccc(CCCCCCCOP(O)(O)=S)cc1`, the EC50 in assay [1] (LPA1 EC50) stood at 4830 nM; in assay [2] (LPA2 EC50, Table 4), 6060 nM; in assay [3], 858 nM. For the same molecule, in assay [1], the “LPA1 effect in words” value was “Partial agonist”. Also, the “LPA2 effect in words” value in assay [2] (Table 4) is given as “full agonist”. Also, the “LPA3 effect in words” value in assay [3] is “Partial agonist”.

Turning to `CCCCCCCCc1ccc(CCCCCCCOP(=O)(O)O)cc1`, in assay [1], the midpoint of the response, the EC50, lay at 21500 nM and the “LPA1 effect in words” value is recorded as “Partial agonist”. The “LPA2 effect in words” value in assay [2] (Table 4) is “Weak antagonist”. Also, the IC50 in assay [3] amounted to 1760 nM.

Take `CCCCCCCCCCCCC1OCC(COP(=O)(O)O)O1` (centres unmarked) [Analog 4]: the concentration giving a half-maximal response (EC50) in assay [1] is above 30000 nM; in assay [2] (LPA2 EC50, text), 1180 nM; in assay [3], above 30000 nM. In addition, the half-maximal inhibitory concentration (IC50) was 1110 nM in assay [1] (LPA1 (nM) IC50, Table 1); 1100 nM in assay [1] (LPA1 IC50, text); 2870 nM in assay [3].

Regarding `CCCCCCCC/C=C\CCCCCCCC1OCC(COP(=O)([O-])O)O1.[K+]` (centres unmarked) [Analog 5], the “LPA2 agonist/antagonist activity in words” value in assay [2] is on record as “full LPA2 agonist”. The EC50 in assay [2] (LPA2 (nM) EC50, Table 1) worked out at 68 nM. Further, in assay [3], the EC50 is above 30000 nM, the IC50 came out at 527 nM and the “LPA3 agonist/antagonist activity in words” value is “LPA1/3 antagonist”.

In the case of `CCCCCCCC/C=C\CCCCCCCC1OCC(COP([O-])(O)=S)O1.[K+]` (centres unmarked) [Analog 6], in assay [1], the half-inhibitory concentration (IC50) is above 30000 nM and the “LPA1 agonist/antagonist activity in words” value is reported as “pan-agonists”. In assay [1] (LPA1 (nM) EC50, Table 1), the half-maximal effective concentration (EC50) amounted to 981 nM. For the same molecule, in assay [2], the “LPA2 agonist/antagonist activity in words” value is “pan-agonists”. In assay [2] (LPA2 (nM) EC50, Table 1), it took 34 nM to reach a half-maximal effect (EC50). In assay [3], the EC50 was found to be 639 nM, the IC50 was above 30000 nM and the “LPA3 agonist/antagonist activity in words” value is recorded as “pan-agonists”.

With `CCCCCCCCc1ccc(CCCCCCC2OCC(COP(=O)(O)O)O2)cc1` (centres unmarked) [Analog 14], the figures for the IC50 in assay [1], in assay [2] and in assay [3] were 4660 nM, above 30000 nM and above 30000 nM, respectively. Moreover, the EC50 in assay [1] (LPA1 (nM) EC50, Table 1) was above 30000 nM; in assay [2] (LPA2 (nM) EC50, Table 1), above 30000 nM; in assay [3], 692 nM.

In the case of `CCCCCCCCc1ccc(CCCCCCC2OCC(COP([O-])(O)=S)O2)cc1.[K+]` (centres unmarked) [Analog 15], the “LPA1 agonist/antagonist activity in words” value in assay [1] was “no effect”. The concentration giving a half-maximal response (EC50) was above 30000 nM in assay [1] (LPA1 (nM) EC50, Table 1); above 30000 nM in assay [2] (LPA2 (nM) EC50, Table 1); above 30000 nM in assay [3]. In addition, the concentration for half-maximal inhibition (IC50) is above 30000 nM in assay [2] and 504 nM in assay [3]. Also, the “LPA2 agonist/antagonist activity in words” value in assay [2] is reported as “no effect”. The “LPA3 agonist/antagonist activity in words” value in assay [3] is recorded as “sub-type selective LPA3 antagonist”.

In the case of `CCCCCCCC/C=C\CCCCCCC[C@@H]1OC[C@H](COP(=O)(O)O)O1` [Analog 21], the EC50 in assay [2] (LPA2 (nM) EC50, Table 1) was above 10000 nM; in assay [3], above 30000 nM. Further, the half-maximal inhibitory concentration (IC50) was above 30000 nM in assay [2] (LPA2 (nM) IC50, Table 1) and 484 nM in assay [3].

With `CCCCCCCC/C=C\CCCCCCC[C@@H]1OC[C@H](COP(O)(O)=S)O1` [Analog 22], the IC50 in assay [2] and in assay [3] was above 30000 nM throughout. The 50% effective concentration (EC50) stood at 1540 nM in assay [2] (LPA2 (nM) EC50, Table 1) and 204 nM in assay [3].

Take `CCCCCCCC/C=C\CCCCCCC[C@H]1OC[C@H](COP(=O)(O)O)O1` [Analog 23]: in assay [2] (LPA2 (nM) EC50, Table 1), the EC50 was above 30000 nM. The molecule further displayed an IC50 in assay [2] (LPA2 (nM) IC50, Table 1) above 30000 nM.

`CCCCCCCC/C=C\CCCCCCC[C@H]1OC[C@H](COP(O)(O)=S)O1` [Analog 24] came in with a half-inhibitory concentration (IC50) in assay [2] above 30000 nM. In addition, a half-maximal effect in assay [2] (LPA2 (nM) EC50, Table 1) (EC50) was put at 1320 nM.

In assay [2] (LPA2 (nM) EC50, Table 1), `CCCCCCCC/C=C\CCCCCCC[C@H]1OC[C@@H](COP(=O)(O)O)O1` [Analog 25] registered an EC50 of 1170 nM. Further, in assay [2] (LPA2 (nM) IC50, Table 1), the IC50 is above 30000 nM.

On to `CCCCCCCC/C=C\CCCCCCC[C@@H]1OC[C@@H](COP(O)(O)=S)O1` [Analog 28], for which the half-inhibitory concentration (IC50) in assay [2] is above 30000 nM. Further, the 50% effective concentration (EC50) in assay [2] (LPA2 (nM) EC50, Table 1) worked out at 1710 nM.

In assay [1], `CCCCCCCC(=O)OCC(COP(=O)(O)O)OC(=O)CCCCCCC` (centres unmarked) [Cpd 2, phosphatidic acid 8:0, reference compound] showed a Ki of 407 nM. The molecule also showed an IC50 in assay [1] (LPA1 IC50, Table 5) of 692 nM.

Regarding `CCCCCCCC(=O)OC[C@@H](COP(=O)(O)O)OC(=O)CCCCCCC` [Cpd 7a, (2S)-PA 8:0], the “LPA1 agonist/antagonist activity in words” value in assay [1] was “subtype selective antagonism”. In assay [1] (read-out: LPA1 (Ki), Table 5), the Ki is 221 nM. Besides, in assay [1] (read-out: LPA1 IC50, Table 5), the IC50 came out at 433 nM. Besides, the “LPA2 agonist/antagonist activity in words” value in assay [2] was “no effect”. The “LPA3 agonist/antagonist activity in words” value in assay [3] is on record as “subtype selective antagonism”.

As to `CCCCCCCC(=O)OC[C@@H](COP(O)(O)=S)OC(=O)CCCCCCC` [Cpd 8a, thiophosphatidic acid 8:0], the “LPA1 agonist/antagonist activity in words” value in assay [1] is listed as “lacked LPA1/3 antagonism”. For the same molecule, the “LPA2 agonist/antagonist activity in words” value in assay [2] was “partial agonist”. The Emax in assay [2] turned out to be 17%; in assay [3] (RH7777, read-out: LPA3 (Emax)), 30%. The concentration giving a half-maximal response (EC50) in assay [2] (read-out: LPA2 EC50, Table 5) stood at 7170 nM; in assay [3] (read-out: LPA3 EC50, Table 5), 115 nM. Moreover, in assay [3], the “LPA3 agonist/antagonist activity in words” value is on record as “partial agonist”.

For the molecule `CCCCCCCC(=O)OC[C@H](COP(O)(O)=S)OC(=O)CCCCCCC` [Cpd 8b, (2R)-TPA 8:0], in assay [1], the “LPA1 agonist/antagonist activity in words” value is listed as “more potent antagonist”. Besides, the Ki came out at 360 nM in assay [1] (read-out: LPA1 (Ki), Table 5) and 5 nM in assay [3] (read-out: LPA3 Ki). The half-maximal inhibitory concentration (IC50) in assay [1] (read-out: LPA1 IC50, Table 5) was 686 nM; in assay [3] (read-out: LPA3 IC50, Table 5), 11 nM. Further, in assay [2], the “LPA2 agonist/antagonist activity in words” value is on record as “partial agonist”. Further, the Emax in assay [2] came out at 58%. Also, the EC50 in assay [2] (read-out: LPA2 EC50, Table 5) came out at 6330 nM. Moreover, the “selectivity for LPA3 over LPA1” value in assay [3] came to 75 fold.

Take `CCCCCCCCOC[C@@H](COP(=O)(O)O)OCCCCCCCC` [Cpd 12a]: the Ki in assay [1] (read-out: LPA1 (Ki), Table 5) turned out to be 486 nM; in assay [3] (read-out: LPA3 (Ki), Table 5) it was 50 nM. Further, the half-inhibitory concentration (IC50) in assay [1] (setting [5]) came to 1580 nM; in assay [1] (read-out: LPA1 IC50, Table 5) it was 1580 nM; in assay [3] (setting [4]), 143 nM; in assay [3] (read-out: LPA3 IC50, Table 5) it was 143 nM. For the same molecule, in assay [2] (*transient), the “LPA2 effect in words” value is given as “Weak inhibition(?) *transient”.

Turning to `CCCCCCCCNC(=O)[C@H](COP(O)(O)=S)NC(=O)CCCCCCC` [Cpd 20a], the Ki is 152 nM in assay [1] (read-out: LPA1 (Ki), Table 5) and 117 nM in assay [3] (read-out: LPA3 (Ki), Table 5). Further, the IC50 in assay [1] (read-out: LPA1 IC50, Table 5) was 476 nM; in assay [3] (read-out: LPA3 IC50, Table 5), 251 nM.

On to `CCCCCCCCNC(=O)[C@@H](COP(O)(O)=S)NC(=O)CCCCCCC` [Cpd 20b], for which the inhibition constant Ki in assay [1] (read-out: LPA1 (Ki), Table 5) amounted to 2850 nM; in assay [3] (read-out: LPA3 (Ki), Table 5), 118 nM. For the same molecule, the half-maximal inhibitory concentration (IC50) in assay [1] (read-out: LPA1 IC50, Table 5) came out at 7390 nM; in assay [3] (read-out: LPA3 IC50, Table 5), 302 nM.

Turning to `CCCCCCCCc1ccc(CCCCCCC2OCC(COP(=O)(O)O)O2)cc1` (centres unmarked) [ID 14], the half-maximal inhibitory concentration (IC50) in assay [1] (setting [5]) was 4660 nM. The “LPA3 effect in words” value in assay [3] is “Partial agonist”.

For `CCCCCCCCc1ccc(CCCCCCC2OCC(COP(O)(O)=S)O2)cc1` (centres unmarked) [ID 15], in assay [1], the “LPA1 effect in words” value is “Weak antagonist”.
